Reference: patent US5606037A, “Processes antineoplastic heteronaphthoquinones” (BioChem Pharma Inc., priority 1995, dated 1997)

What was measured:
Assay type in all cases: cell-based, Human
[1] = system: SKOV3 (Ovarian adenocarcinoma); test: In vitro cytotoxicity, microculture tetrazolium (MTT) assay, SKOV3; conditions: Homo sapiens, SK-OV-3; SKOV3 ovarian adenocarcinoma; 48 h with compound, further 48 h, MTT; Table 1
Method in brief: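 Cells plated overnight, then exposed to compound (1:3 dilutions, 100 μM to 1.7 nM, quadruplicate) 48 h at 37 °C, followed by 48 h in fresh medium. MTT 4 h, formazan extracted in DMSO/Sorensen's buffer pH 10.5, A570; four-parameter logistic fit on 0–100% survival scale.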

[2] = system: SKVLB (Ovarian; multidrug resistant); test: In vitro cytotoxicity, microculture tetrazolium (MTT) assay, SKVLB; conditions: Homo sapiens; SKVLB multidrug resistant ovarian; 48 h with compound, further 48 h, MTT; Table 1
Method in brief: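 Multidrug-resistant SKVLB ovarian cells, 1,500–4,000 per well, exposed to compound (1:3 dilutions, 100 μM to 1.7 nM, quadruplicate) for 48 h at 37 °C, then 48 h in fresh medium. Viability by MTT reduction, formazan read at 570 nm; four-parameter logistic fit on a 0–100% survival scale.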

[3] = system: HT 29 (Colon adenocarcinoma); test: In vitro cytotoxicity, microculture tetrazolium (MTT) assay, HT29; conditions: Homo sapiens, HT-29, 48 h with compound, further 48 h, Table 1
Method in brief: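 HT29 cells exposed to compound (1:3 series, 100 μM to 1.7 nM, quadruplicate) for 48 h at 37 °C, then 48 h in fresh medium. Viability by MTT reduction, formazan absorbance at 570 nm; four-parameter logistic fit on 0-100% survival scale.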

Lox (Melanoma) = test: In vitro cytotoxicity, microculture tetrazolium (MTT) assay, LOX; conditions: Homo sapiens, 48 h with compound, further 48 h, Table 1
Method in brief: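 LOX melanoma cells, 1,500–4,000 per well, exposed to compound (1:3 dilutions, 100 μM to 1.7 nM) for 48 h at 37° C., then 48 h in fresh medium. MTT reduction read at 570 nm; four-parameter logistic fit normalized to 0–100% survival.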

[4] = system: T47D (Ductal carcinoma of breast); test: In vitro cytotoxicity, microculture tetrazolium (MTT) assay, T47D; conditions: Homo sapiens, 48 h with compound, further 48 h, Table 1
Method in brief: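 Adherent cells (1,500-4,000/well) were exposed to compound in 1:3 dilutions from 100 μM to 1.7 nM, in quadruplicate, for 48 h at 37° C, followed by 48 h in fresh medium. MTT formazan was read at 570 nm, and data were fitted by four-parameter logistic on a 0-100% survival scale.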

Structure (SMILES) | IC50 [1] | IC50 [2] | IC50 [3] | IC50 (Lox (Melanoma)) | IC50 [4]
CO[C@H]1C[C@H](O[C@H]2O[C@H](C(C)=O)CC3=C2C(=O)c2ccccc2C3=O)O[C@@H](C)[C@H]1OS(C)(=O)=O [BCH2070, (1'-S, 1-R, 3-S)-methyl-(1-[2',3',4',6' tetradeoxy-3'-methoxy-4'-O-methanesulfonyl-L-lyxohexopyranose)-5,10-dioxo-3,4,5,10 tetrahydronaphtho-[2,3-c]pyran-3-yl) ketone] | 8.4 nM | 120 nM | 6 to 534 nM | 15 nM | 18 nM
CC(=O)[C@@H]1CC2=C(C(=O)c3ccccc3C2=O)[C@@H](O[C@H]2C[C@H](NC(=O)C(F)(F)F)[C@H](O)[C@H](C)O2)S1 [BCH2037, (1'S,1S,3S)-1-(3'-trifluoroacetamido-2',3',6'-trideoxy-L-lyxohexopyranose)-5,10-dioxo-3,4,5,10-tetrahydro-1H-naphtho-[2,3-c]-thiopyran] | 590 to 5090 nM | 3800 to 4730 nM | 1100 to 4250 nM | 540 to 816 nM | 2200 to 2290 nM
COC(=O)[C@H](CC(C)C)NC(=O)[C@H](CO[C@H]1O[C@H](C(C)=O)CC2=C1C(=O)c1ccccc1C2=O)NC(=O)OC(C)(C)C [BCH1998, (1S,2'S,3S,5'S)-Methyl-(1-O-[N-BOC-Serine-Leucine-Me ester]-5,10-dioxo-3,4,5,10-tetrahydro-1-H-naphtho[2,3-c]pyran-3-yl) ketone] | 125 nM | 1660 nM | 36.3 nM | 63.1 nM | 114 nM
COC1OC(C(C)=O)=CC2=C1C(=O)c1ccccc1C2=O (centres unmarked) [BCH2129, 3-Aceto-5,10-dioxo-1-methoxy-5,10-dihydro-1H-naphtho-(2,3-c)-pyran] | 359 nM | 1060 nM | 2070 nM | 228 nM | 452 nM
CC(=O)C1CC2=C(C(=O)c3ccccc3C2=O)C(O[C@H]2C[C@H](NC(=O)C(F)(F)F)[C@H](OS(C)(=O)=O)[C@H](C)O2)O1 (mixture of isomers) [BCH2095, (1'-S, 1-S, 3-R) and (1'-S, 1-R, 3-S)-methyl-(1-[2',3',4',6' tetradeoxy-3'-trifluoroacetamido-4'-O-methane-sulfonyl-L-lyxohexopyranose)-5,10-dioxo-3,4,5,10 tetrahydronaphtho-[2,3-c]pyran-3-yl) ketone] | 190 nM | 1600 nM | 99.6 nM | 140 nM | 370 nM
CO[C@@H]1O[C@H](C(=O)Nc2ccccc2)CC2=C1C(=O)c1ccccc1C2=O (relative stereo) [BCH2042, (1,3-cis)-anline-(1-methoxy-5,10-dioxo-3,4,5,10-tetrahydro-1H-naphtho-[2,3-c]-pyran)-3-carboxamide] | 3800 nM | 13200 nM | 1200 nM | 2220 nM | 8000 nM
CC(=O)O[C@@H]1[C@H](C)O[C@@H](O[C@H]2O[C@H](C(C)=O)CC3=C2C(=O)c2ccccc2C3=O)C(Br)[C@@H]1OC(C)=O (stereo partly drawn) [BCH2100, (1'S,1R,3S)-methyl-(1-[2',6'-dideoxy-3',4'-diacetoxy-2'-bromo-L-lyxohexopyranose]-5,10-dioxo-3,4,5,10-tetrahydronaphtho-[2,3-c]-pyran-3-yl) ketone] | 2700 nM | 8220 nM | 5120 nM | 3000 nM | 4000 nM
CC(=O)C1CC2=C(CO1)C(=O)c1ccccc1C2=O (centres unmarked) [BCH1125, Methyl (5,10-dioxo-3,4,5,10-tetrahydronaphtho [2,3-C]pyran-3-yl) ketone] | > 100000 nM | 92900 nM | > 100000 nM | 52800 nM | 36400 nM
CC(=O)CC1CC2=C(C(=O)c3cccc(O)c3C2=O)C(O[C@H]2C[C@H](NC(=O)C(F)(F)F)[C@H](O)[C@H](C)O2)O1 (mixture of isomers) [BCH2098, (1'-S, 1-S, 3-R) and (1'-S, 1-R, 3-S)-1-(6-hydroxy-1-(2',3',6'-trideoxy-3'-trifluoroacetamido, 4-hydroxy-L-lyxopyranose)-5,10-dioxo-3,4,5,10 tetrahydronaphtho-[2,3-c]pyran-3-yl) propane-2-one] | 8000 nM | 30000 nM | 17000 nM | 4200 nM | 10000 nM
CC(=O)C1CC2=C(C(=O)c3ccccc3C2=O)C(OCC2CCCN(C(=O)OC(C)(C)C)C2)O1 (mixture of isomers) [BCH2060, Methyl-(1-O-[N-BOC-3-piperidinemethanol]-5,6-dioxo-3,4,5,10-tetrahydronaphthaleno-[2,3-c]pyran-3-yl) ketone] | 1140 nM | 2500 nM | 260 nM | 1950 nM | 562 nM
CC[C@H]1CC2=C(C(=O)c3ccccc3C2=O)[C@H](O[C@H]2C[C@H](NC(=O)C(F)(F)F)[C@H](O)[C@H](C)O2)O1 [BCH2020, (1'S, 1S, 3S)-5,10-dioxo-3-ethyl-1-(2',3',6'-trideoxy-3'-trifluoroacetamido-L-lyxohexopyranose)-3,4,5,10-tetrahydro-1H-naphtho-[2,3-c]-pyran] | 11200 nM | 25900 nM | 19100 nM | 5450 nM | 9420 nM
CC(=O)[C@@H]1CC2=C(C(=O)c3ccccc3C2=O)[C@@H](O[C@@H]2O[C@@H](C)[C@@H](O)[C@@H](O)[C@H]2I)O1 [BCH2015, (1'S,1R,3S)-methyl-(1-[2',6'-dideoxy-3',4'-dihydroxy-2'-iodo-L-lyxohexopyranose]-5,10-dioxo-3,4,5,10-tetrahydronaphtho[2,3-c]-pyran-3-yl) ketone] | 367 nM | 1170 nM | 557 nM | 1090 nM | 909 nM
CC(=O)[C@H]1CC2=C(C(=O)c3ccccc3C2=O)[C@H](O[C@H]2C[C@H](NC(=O)C(F)(F)F)[C@H](Br)[C@H](C)O2)O1 [BCH2047, (1S,3R,1'S)-Methyl-(1-[2',3',4',6'-tetradeoxy-3'-trifluoroacetamido-4'-bromo-L-lyxohexopyranose]-5,10-dioxo-3,4,5,10-tetrahydronaphthaleno-[2,3-c]pyran-3-yl) ketone] | 17 nM | 523 nM | 4.1 nM | 21 nM | 151 nM
